Measured values reported in patent US20250268801A1, “DRY CREAMS AND TOPICAL DELIVERY SYSTEMS” (UEA Enterprises Limited, priority 2021, published 2025).
Converted amounts (≈) assume the structure as drawn.

Legend:
[1] = Drug solubility in loading solvent; format: physicochemical; conditions: sunflower oil, oil or lipid
Experimental: The maximum amount of metoprolol which can dissolve in the volume of ethanol in a 10% solution was precisely weighed out and dissolved in the ethanol—DCM in the HPMCAS-PVP polymer solution before it was electrospun. When coumarin (hydrophobic fluorescent dye) was added, the voltage was increased to 19.1 kv. […] Ketoconazole was dissolved in sunflower oil.

[2] = cited from earlier work

solubility [1] | SMILES | solubility in ethanol [2]
~5800 µg/mL (≈ 10.9 mM) | CC(=O)N1CCN(c2ccc(OCC3COC(Cn4ccnc4)(c4ccc(Cl)cc4Cl)O3)cc2)CC1 (centres unmarked) [Ketoconazole] | 
 | COCCc1ccc(OCC(O)CNC(C)C)cc1 (centres unmarked) [Metoprolol] | 31000 µg/mL (≈ 116 mM)
